Data as given in patent US20110237520A1, “Anticancer Compounds” (priority 2008, published 2011).
Like-named read-outs stand apart in the source and are kept apart here. Numbered stars: 1 amine (or outer) side, 2 acyl side, 3 side chain; on linkers, the order of the positions; unused ones are H or OH. Bridge positions count the residues as written; N and C are the ends. Square brackets hold non-standard residues; d marks the D form. Peptide text beside a SMILES is read from it. * marks the point of attachment. ξ: configuration not given here. dNle(3R-OH,4R,5-Me2) = CC(C)[C@@H](C)[C@@H](O[*:3])[C@@H](N[*:1])C(=O)[*:2]; γ4hArg(2R,3R-(OH)2) = N=C(N)NCCC[C@H](N[*:1])[C@@H](O)[C@@H](O)C(=O)[*:2]; Heptanoyl(3R-OH,2R,4R,6-Me3) = CC(C)C[C@@H](C)[C@@H](O)[C@@H](C)C(=O)*; X5 = CO[C@H](c1ccc(O)cc1)C(N[*:1])C(=O)C[C@H](CC(N)=O)C(=O)[*:2]; Gln(3S,4R-Me2) = C[C@H]([C@H](N)C(=O)O)[C@@H](C)C(N)=O; X1 = NC(=O)CC[C@H](N[*:1])[C@@H](O)[C@@H](O)C(=O)[*:2]; X7 = O=C(O)CC[C@H](N[*:1])[C@@H](O)[C@@H](O)C(=O)[*:2]; ξThr(3R)(O-yl) = C[C@@H](O[*:3])C(N[*:1])C(=O)[*:2]; X6 = CC[C@@H](C)C[C@@H](C)[C@@H](O)[C@@H](C)C(=O)*; X4 = C[C@H](C(N[*:1])C(=O)[*:2])[C@@H](C)C(N)=O; Asn(3S-OEt) = CCO[C@H](C(N)=O)[C@H](N)C(=O)O; dAsp(3S-OH) = N[C@@H](C(=O)O)[C@H](O)C(=O)O; ξGln(3,4-Me2) = CC(C(N)=O)C(C)C(N)C(=O)O; X3 = CC(O)C(N[*:1])C(O)C(O)C(=O)[*:2]; ξAsn(3ξ-OMe) = COC(C(N)=O)C(N)C(=O)O; d(aThr) = C[C@@H](O)[C@@H](N)C(=O)O; X2 = CC(C)CC(C)CC(C)C(O)C(C)C(=O)*; NMeQ = CN[CH](CCC(N)=O)C(=O)O; ξNle(4ξ-Me) = CCC(C)CC(N)C(=O)O; ξThr(3R) = C[C@@H](O)C(N)C(=O)O; dOrn = NCCC[C@@H](N)C(=O)O; Pip = O=C(O)[CH]1CCCCN1; Orn = NCCC[CH](N)C(=O)O; ξL = CC(C)CC(N)C(=O)O

Assays:
[1] = system: HIV-1; settings: cell-based XTT assay; read-out: IC50, cytoprotective activity against HIV-1 infection; cited from earlier work
[2] = system: MDA-MB-231; experiment: SRB colorimetric cytotoxicity assay, MDA-MB-231; format: cell-based, human; settings: MDA-MB-231, 72 hours treatment; for GI50: 50% cell growth inhibition; for TGI: total cell growth inhibition
From the text: (§1) The aim of this assay is to evaluate the in vitro cytostatic (ability to delay or arrest tumor cell growth) or cytotoxic (ability to kill tumor cells) activity of the samples being tested.
(§2) A colorimetric assay, using sulforhodamine B (SRB) reaction has been adapted to provide a quantitative measurement of cell growth and viability (following the technique described by Skehan et al. J. Natl. Cancer Inst. 1990, 82, 1107-1112).
(§3) This form of assay employs SBS-standard 96-well cell culture microplates (Faircloth et al. Methods in Cell Science, 1988, 11(4), 201-205; Mosmann et al, Journal of Immunological Methods, 1983, 65(1-2), 55-63). All the cell lines used in this study were obtained from the American Type Culture Collection (ATCC) and derive from different types of human cancer.
(§4) Cells were maintained in Dulbecco's Modified Eagle Medium (DMEM) supplemented with 10% Fetal Bovine Serum (FBS), 2 mM L-glutamine, 100 U/mL penicillin and 100 U/mL streptomycin at 37° C., 5% CO2 and 98% humidity. For the experiments, cells were harvested from subconfluent cultures using trypsinization and resuspended in fresh medium before counting and plating.
(§5) Cells were seeded in 96 well microtiter plates, at 5×10^3 cells per well in aliquots of 150 μL, and allowed to attach to the plate surface for 18 hours (overnight) in drug free medium. After that, one control (untreated) plate of each cell line was fixed (as described below) and used for time zero reference value. Culture plates were then treated with test compounds (50 μL aliquots of 4× stock solutions in complete culture medium plus 4% DMSO) using ten serial dilutions (concentrations ranging from 10 to 0.00262 μg/mL) and triplicate cultures (1% final concentration of DMSO). After 72 hours treatment, the antitumor effect was measured by using the SRB methodology: Briefly, cells were washed twice with PBS, fixed for 15 min in 1% glutaraldehyde solution at room temperature, rinsed twice in PBS, and stained in 0.4% SRB solution for 30 min at room temperature. Cells were then rinsed several times with 1% acetic acid solution and air-dried at room temperature. SRB was then extracted in 10 mM trizma base solution and the absorbance measured in an automated spectrophotometric plate reader at 490 nm. Effects on cell growth and survival were estimated by applying the NCI algorithm (Boyd M R and Paull K D. Drug Dev. Res. 1995, 34, 91-104).
(§6) Using the mean±SD of triplicate cultures, a dose-response curve was automatically generated using nonlinear regression analysis. Three reference parameters were calculated (NCI algorithm) by automatic interpolation: GI50=compound concentration that produces 50% cell growth inhibition, as compared to control cultures; TGI=total cell growth inhibition (cytostatic effect), as compared to control cultures, and LC50=compound concentration that produces 50% net cell killing (cytotoxic effect).

[3] = system: HT29; experiment: SRB colorimetric cytotoxicity assay, HT29; format: cell-based, human; settings: for GI50: 50% cell growth inhibition; for CC50: 50% net cell killing, read-out: LC50 (the source's name); for TGI: total cell growth inhibition
From the text: as §1, §2, §3, §4, §5, §6

[4] = system: A549; experiment: SRB colorimetric cytotoxicity assay, A549; format: cell-based, human; settings: A549, 72 hours treatment; for GI50: 50% cell growth inhibition; for CC50: 50% net cell killing, read-out: LC50 (the source's name); for TGI: total cell growth inhibition
From the text: as §1, §2, §3, §4, §5, §6

[5] = system: HIV-1RF; settings: in vitro; cited from earlier work
[6] = system: HIV-1RF; settings: human T-cell line CEM-SS infected with HIV-1RF, 6 day incubation; read-out: EC50, inhibition of the cytopathic effect of HIV-1 infection; cited from earlier work
[7] = system: panel of human cancer cell lines; settings: mean over a panel of human cancer cell lines; cited from earlier work
[8] = Homo sapiens, HT-29, HT29, 72 hours treatment

## CC[C@@H](C)C[C@@H](C)[C@@H](O)[C@@H](C)C(=O)N[C@H](CCCN)C(=O)N[C@@H](CCC(=O)O)[C@@H](O)[C@@H](O)C(=O)N[C@H](C(=O)N[C@H]1C(=O)N[C@H](CO)C(=O)N[C@H](CCCN)C(=O)N[C@@H](CC(C)C)C(=O)N(C)[C@@H](CCC(N)=O)C(=O)N[C@@H]([C@@H](C)OC)C(=O)N[C@H](CC(=O)O)C(=O)N2CCCC[C@H]2C(=O)O[C@@H]1[C@H](C)C(C)C)[C@@H](C)[C@@H](C)C(N)=O [homophymine A] (X6-[dOrn][X7][Gln(3S,4R-Me2)][dNle(3R-OH,4R,5-Me2)][dS][dOrn]L[NMeQ]T(Me)[dD][Pip]; ester 4-C)
[1]
  IC50: 75 nM

## CCO[C@H](C(N)=O)[C@@H]1NC(=O)[C@H](CCC(N)=O)N(C)C(=O)[C@H](CC(C)C)NC(=O)[C@@H](CCCCN)NC(=O)[C@@H]([C@@H](C)O)NC(=O)[C@H](NC(=O)[C@@H](NC(=O)[C@H](O)[C@H](O)[C@H](CCC(N)=O)NC(=O)[C@H](NC(=O)[C@H](C)[C@H](O)[C@H](C)CC(C)C)[C@H](O)C(=O)O)[C@@H](C)[C@@H](C)C(N)=O)[C@@H]([C@H](C)C(C)C)OC(=O)[C@@H]2CCCCN2C(=O)[C@@H](CC(=O)O)NC1=O [Pipecolidepsin B] ({Heptanoyl(3R-OH,2R,4R,6-Me3)}-[dAsp(3S-OH)][X1][Gln(3S,4R-Me2)][dNle(3R-OH,4R,5-Me2)][d(aThr)][dK]L[NMeQ][Asn(3S-OEt)][dD][Pip]; ester 4-C)
[2]
  GI50: 23.3 nM
  LC50 (50% net cell killing): 209 nM
  TGI: 6.58E−08 Molar
[3]; HT29, 72 hours treatment
  GI50: 14.4 nM
  CC50: 65.8 nM
  TGI: 2.69E−08 Molar
[4]
  GI50: 35.3 nM
  CC50: 353 nM
  TGI: 1.08E−07 Molar

## papuamide B
[5]
  EC50, inhibition of infection of human T-lymphoblastoid cells by HIV-1RF: approximately 4 ng/mL

## CO[C@H](c1ccc(O)cc1)C1NC(=O)[C@H](CCC(N)=O)N(C)C(=O)C(CC(C)C)NC(=O)[C@@H](CCCNC(=N)N)NC(=O)C([C@@H](C)O)NC(=O)C(NC(=O)C(NC(=O)[C@H](O)[C@H](O)[C@H](CCCNC(=N)N)NC(=O)[C@H](CC(N)=O)NC(=O)[C@H](C)[C@H](O)[C@H](C)CC(C)C)[C@@H](C)[C@@H](C)C(N)=O)[C@@H](C)OC(=O)[C@@H]2CCCCN2C(=O)[C@@H](CC(N)=O)CC1=O (stereo partly drawn) [neamphamide A] ({Heptanoyl(3R-OH,2R,4R,6-Me3)}-N[γ4hArg(2R,3R-(OH)2)][X4][ξThr(3R)(O-yl)][ξThr(3R)][dR][ξL][NMeQ][X5][Pip]; ester 4-C)
[6]
  EC50: 28 nM

## CCC(C)CC1NC(=O)C(CCCN)NC(=O)C(C(C)O)NC(=O)C(NC(=O)C(NC(=O)C(O)C(O)C(NC(=O)CNC(=O)C(C)C(O)C(C)CC(C)CC(C)C)C(C)O)C(C)C(C)C(N)=O)C(C)OC(=O)C2CCCCN2C(=O)C(CC(N)=O)NC(=O)C(C(OC)C(N)=O)NC(=O)C(CCC(N)=O)N(C)C1=O (centres unmarked) [Pipecolidepsin C] (X2-G[X3][ξGln(3,4-Me2)]TT[Orn][ξNle(4ξ-Me)][NMeQ][ξAsn(3ξ-OMe)]N[Pip]; ester 4-C; configuration not given here)
[2]; Homo sapiens
  GI50: 480 nM
  LC50 (50% net cell killing): 907 nM
[2]
  TGI: 6.48E−07 Molar
[3]; HT29, 72 hours treatment
  TGI: 8.43E−07 Molar
[3]; [8]
  GI50: 648 nM
  CC50: 1040 nM
[4]
  TGI: 5.25E−07 Molar
[4]; Homo sapiens
  GI50: 428 nM
  CC50: 648 nM

## CCO[C@H](C(N)=O)[C@@H]1NC(=O)[C@H](CCC(N)=O)N(C)C(=O)[C@H](CC(C)C)NC(=O)[C@@H](CCCCN)NC(=O)[C@@H]([C@@H](C)O)NC(=O)[C@H](NC(=O)[C@@H](NC(=O)[C@H](O)[C@H](O)[C@H](CCC(N)=O)NC(=O)[C@@H](CC(=O)O)NC(=O)[C@H](C)[C@H](O)[C@H](C)CC(C)C)[C@@H](C)[C@@H](C)C(N)=O)[C@@H]([C@H](C)C(C)C)OC(=O)[C@@H]2CCCCN2C(=O)[C@@H](CC(=O)O)NC1=O [Pipecolidepsin A] ({Heptanoyl(3R-OH,2R,4R,6-Me3)}-[dD][X1][Gln(3S,4R-Me2)][dNle(3R-OH,4R,5-Me2)][d(aThr)][dK]L[NMeQ][Asn(3S-OEt)][dD][Pip]; ester 4-C)
[2]
  GI50: 725 nM
  LC50 (50% net cell killing): 1750 nM
  TGI: 1.15E−06 Molar
[3]; HT29, 72 hours treatment
  GI50: 1150 nM
  CC50: 1570 nM
  TGI: 1.33E−06 Molar
[4]
  GI50: 604 nM
  CC50: 1390 nM
  TGI: 9.06E−07 Molar

## papuamide A
[5]
  EC50, inhibition of infection of human T-lymphoblastoid cells by HIV-1RF: approximately 4 ng/mL
[7]
  mean IC50, cytotoxicity: 75 ng/mL
